According to paper PMC10939250 (PLOS Biology, 2024):
Residues, ends and D or L forms follow the SMILES beside them.

Legend:
[1] = mouse, in vivo

CC[C@H](C)[C@H](NC(=O)[C@H](CC(C)C)NC(=O)[C@@H](NC(=O)CNC(=O)[C@@H](NC(=O)[C@H](CC(=O)O)NC(=O)[C@H](CC(=O)O)NC(=O)[C@H](CO)NC(=O)[C@@H](NC(=O)[C@H](Cc1ccccc1)NC(=O)[C@H](CO)NC(=O)[C@H](Cc1ccc(O)cc1)NC(=O)[C@H](CCSC)NC(=O)[C@H](CCC(N)=O)NC(=O)[C@@H]1CCCN1C(=O)[C@@H]1CCCN1C(=O)[C@H](CCCNC(=N)N)NC(=O)[C@H](CCCNC(=N)N)NC(=O)[C@H](CCCNC(=N)N)NC(=O)[C@H](CCC(N)=O)NC(=O)[C@H](CCCNC(=N)N)NC(=O)[C@H](CCCNC(=N)N)NC(=O)[C@H](CCCCN)NC(=O)[C@H](CCCCN)NC(=O)[C@H](CCCNC(=N)N)NC(=O)CN)C(C)C)[C@@H](C)O)[C@@H](C)O)C(=O)N[C@H](C(=O)N[C@@H](CC(N)=O)C(=O)N[C@@H](CO)C(=O)N[C@H](C(=O)N[C@@H](CC(C)C)C(=O)O)C(C)C)C(C)C [iPep-SARS2-E] (H-GRKKRRQRRRPPQMYSFVSDDTGTLIVNSVL-OH)
IC50 (SARS-CoV-2 WA1 virus): ~400 nM | Cellular toxicity (healthy, apoptotic, dead/necrotic cells) (Jurkat cells): does not cause cellular toxicity | Body weight and inflammation markers Cxcl12 and C5a [1]: did not find any significant differences
